Experimental findings from the NIST ThermoML archive (doi:10.1016/j.jct.2011.11.025) are described below.

The conditions of data set [1]: 101.33 kPa, Liquid, Vibrating tube method.
The nature of data set [2]: activity coefficient (dimensionless); of the first substance listed, at infinite dilution; xn = mol fraction of the nth substance listed. Particulars: Liquid, Chromatography, x1 = 0.

± gives the expanded uncertainty stated by the source.

As a reminder, the mass density is mass per unit of volume.

Regarding `CCCCCCn1cc[n+](C)c1.N#C[B-](C#N)(C#N)C#N` [1-hexyl-3-methylimidazolium tetracyanoborate], the mass density in data set [1] (318.15 K) was 976.11 ± 0.23 kg/m3; in data set [1] (328.15 K), 969.06 ± 0.23 kg/m3; in data set [1] (338.15 K), 962.08 ± 0.23 kg/m3; in data set [1] (348.15 K), 955.16 ± 0.23 kg/m3; in data set [1] (358.15 K) it was 948.32 ± 0.23 kg/m3; in data set [1] (368.15 K), 941.2 ± 0.23 kg/m3.
With `Cc1ccccc1` [toluene] + CCCCCCn1cc[n+](C)c1.N#C[B-](C#N)(C#N)C#N, the activity coefficient in data set [2] (318.15 K) was 0.975 ± 0.025; in data set [2] (328.15 K), 0.993 ± 0.025; in data set [2] (338.15 K), 1.02 ± 0.03; in data set [2] (348.15 K), 1.04 ± 0.03; in data set [2] (358.15 K), 1.06 ± 0.03; in data set [2] (368.15 K), 1.08 ± 0.03.
In the case of `O` [water] + CCCCCCn1cc[n+](C)c1.N#C[B-](C#N)(C#N)C#N, the activity coefficient in data set [2] (318.15 K) is 2.05 ± 0.09; in data set [2] (328.15 K), 1.87 ± 0.08; in data set [2] (338.15 K), 1.7 ± 0.07; in data set [2] (348.15 K) it was 1.55 ± 0.06; in data set [2] (358.15 K) it was 1.42 ± 0.05; in data set [2] (368.15 K) it was 1.33 ± 0.05.
